As usually defined, the IC50 is the concentration that gives 50% inhibition. A high value points to lower potency.

T1 sequence (P28845 whole entry): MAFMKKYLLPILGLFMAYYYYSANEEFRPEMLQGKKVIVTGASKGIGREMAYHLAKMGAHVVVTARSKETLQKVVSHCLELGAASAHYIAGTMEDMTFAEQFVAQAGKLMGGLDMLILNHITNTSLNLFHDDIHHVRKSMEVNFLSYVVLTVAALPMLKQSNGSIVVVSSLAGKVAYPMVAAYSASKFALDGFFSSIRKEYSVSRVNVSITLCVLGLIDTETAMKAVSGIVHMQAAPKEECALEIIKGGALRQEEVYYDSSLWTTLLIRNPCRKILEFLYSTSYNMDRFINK

The assay concerns the target T1, 11β-HSD1 (Homo sapiens, UniProt P28845).
T1 construct: detecting cortisol generated from cortisterone by human liver microsomes; from tissue; host or cells: human liver microsomes
The assay is described as follows: In vitro inhibition of 11β-HSD1, HTRF detection of cortisol generated by human liver microsomes. The following applies: cortisone 80 nM, NADPH 200 μM, 1 hour at 37° C., pH 6.0. Format: biochemical. The method, then:
In vitro inhibition of 11 β-HSD1 by test compounds was determined with HTRF (Homogeneous Time-Resolved Fluorescence) technology (cisbio international, France) detecting cortisol generated from cortisterone by human liver microsomes. Briefly, compounds were incubated for 1 hour at 37° C. in Tris buffer (20 mM tris, 5 mM EDTA, pH 6.0) containing NADPH (200 μM) and cortisone (80 nM). Cortisol generated in the reaction was then detected with a competitive immunoassay, involving two HTRF conjugates: cortisol linked to XL665 and anti-cortisol antibody labeled with Europium cryptate. The incubation period for detection reaction was typically 2 hours. The amount of cortisol was determined by reading the time-resolved fluorescence of the wells (Ex 320/75 nm; Em 615/8.5 nm and 665/7.5 nm). The ratio of the two emission signals is then calculated (Em665*10000/Em615). […] Each assay also contained a calibration curve with cortisol to transform the fluorescent data into cortisol concentrations. Percent inhibition of each compound was determined relative to the carbenoxolone signal and IC50 curves were generated.
In Table 1 the 11β-HSD 1 inhibitory activities, determined as described above, are compiled.
(Time-resolved FRET reads energy transfer from a long-lived donor to a nearby acceptor.)
The molecule `CC(C)(O)C[C@]1(c2ccccc2)CCN([C@H](c2ccc(-c3ccn(C4CC4)c(=O)c3)cc2)C2CC2)C(=O)O1` [Example 9, 3-{(S)-Cyclopropyl-[4-(1-cyclopropyl-2-oxo-1,2-dihydro-pyridin-4-yl)-phenyl]-methyl}-(S)-6-(2-hydroxy-2-methyl-propyl)-6-phenyl-[1,3]oxazinan-2-one] yielded an IC50 of 38 nM.

On to `Cn1ccc(-c2ccc([C@H](C3CC3)N3CC[C@](CC(C)(C)O)(c4ccccc4)OC3=O)cc2)cc1=O` [Example 7, 3-{(S)-Cyclopropyl-[4-(1-methyl-2-oxo-1,2-dihydro-pyridin-4-yl)-phenyl]-methyl}-(S)-6-(2-hydroxy-2-methyl-propyl)-6-phenyl-[1,3]oxazinan-2-one], for which half-maximal inhibition (IC50) was put at 64 nM.

`Cn1cc(-c2ccc(C(C3CC3)N3CCC(CC(C)(C)O)(c4ccccc4)OC3=O)cc2)ccc1=O` (stereo not drawn) [Example 5, 3-{Cyclopropyl-[4-(1-methyl-6-oxo-1,6-dihydro-pyridin-3-yl)-phenyl]-methyl}-6-(2-hydroxy-2-methyl-propyl)-6-phenyl-[1,3]oxazinan-2-one] had a half-maximal inhibitory concentration (IC50) of 35 nM.

Take `Cn1ccc(-c2ccc([C@@H](C3CC3)N3CC[C@@](CC(C)(C)O)(c4ccccc4)OC3=O)cc2)cc1=O` [Example 3b, 3-{(R)-cyclopropyl-[4-(1-methyl-2-oxo-1,2-dihydro-pyridin-4-yl)-phenyl]methyl}-(R)-6-(2-hydroxy-2-methyl-propyl)-6-phenyl-[1,3]oxazinan-2-one]: the IC50 is over 4500 nM.

`Cn1cc(-c2ccc([C@H](C3CC3)N3CC[C@](CC(C)(C)O)(c4ccccc4)OC3=O)cc2)ccc1=O` [Example 10, 3-{(S)-Cyclopropyl-[4-(1-methyl-6-oxo-1,6-dihydro-pyridin-3-yl)-phenyl]-methyl}-(S)-6-(2-hydroxy-2-methyl-propyl)-6-phenyl-[1,3]oxazinan-2-one] came in with an IC50 of 70 nM.

Regarding `Cc1ccc(-c2ccc([C@H](C3CC3)N3CC[C@](CC(C)(C)O)(c4ccccc4)OC3=O)cc2)nn1` [Example 8, 3-{(S)-Cyclopropyl-[4-(6-methyl-pyridazin-3-yl)-phenyl]methyl}-(S)-6-(2-hydroxy-2-methyl-propyl)-6-phenyl-[1,3]oxazinan-2-one], the IC50 worked out at 29 nM.

The molecule `CC(C)(O)CC1(c2ccccc2)CCN(C(c2ccc(Br)cc2)C2CC2)C(=O)O1` (stereo not drawn) [Example 1, 3-[(4-Bromo-phenyl)-cyclopropyl-methyl]-6-(2-hydroxy-2-methyl-propyl)-6-phenyl-[1,3]oxazinan-2-one] came in with an IC50 of 65 nM.

On to `Cn1ccc(-c2ccc(C(C3CC3)N3CCC(CC(C)(C)O)(c4ccccc4)OC3=O)cc2)cc1=O` (stereo not drawn) [Example 3, 3-{Cyclopropyl-[4-(1-methyl-2-oxo-1,2-dihydro-pyridin-4-yl)-phenyl]-methyl}-6-(2-hydroxy-2-methyl-propyl)-6-phenyl-[1,3]oxazinan-2-one], for which the IC50 turned out to be 111 nM.

The molecule `Cn1ccc(-c2ccc([C@H](C3CC3)N3CC[C@@](CC(C)(C)O)(c4ccccc4)OC3=O)cc2)cc1=O` (racemic) [Example 4, 3-{Cyclopropyl-[4-(1-methyl-2-oxo-1,2-dihydro-pyridin-4-yl)-phenyl]-methyl}-6-(2-hydroxy-2-methyl-propyl)-6-phenyl-[1,3]oxazinan-2-one] showed an IC50 of over 10000 nM.

Take `CC(C)(O)C[C@@]1(c2ccccc2)CCN([C@H](c2ccc(Br)cc2)C2CC2)C(=O)O1` (racemic) [Example 2, 3-[(4-Bromo-phenyl)-cyclopropyl-methyl]-6-(2-hydroxy-2-methyl-propyl)-6-phenyl-[1,3]oxazinan-2-one]: the IC50 was determined as 960 nM.

On to `CC(C)(O)C[C@]1(c2ccccc2)CCN([C@H](c2ccc(Br)cc2)C2CC2)C(=O)O1` [Example 6, 3-[(S)-(4-Bromo-phenyl)-cyclopropyl-methyl]-(S)-6-(2-hydroxy-2-methyl-propyl)-6-phenyl-[1,3]oxazinan-2-one], for which the IC50 was determined as 53 nM.

With `Cc1ncc(-c2ccc([C@H](C3CC3)N3CC[C@](CC(C)(C)O)(c4ccccc4)OC3=O)cc2)cn1` [Example 11, 3-{(S)-Cyclopropyl-[4-(2-methyl-pyrimidin-5-yl)-phenyl]methyl}-(S)-6-(2-hydroxy-2-methyl-propyl)-6-phenyl-[1,3]oxazinan-2-one], half-maximal inhibition (IC50) required 54 nM.

For the origin of these results see patent US8703765B2, “Cyclic inhibitors of 11β-hydroxysteroid dehydrogenase 1” (Boehringer Ingelheim International GmbH, priority 2009, dated 2014).
